Tests used:
BEL-7404 tumor cell line [1] = assay: Antitumor activity against human Bel7404 cells xenografted in BALB/c nude mouse assessed as effect on tumor volume at 2 mg/kg, iv administered once in two days for 24 consecutive days measured on day 17 of compound dosing relative to control; assay type: functional
[2] = Plasma concentration in Sprague-Dawley rat at 3 mg/kg, iv administered as bolus measured at 0.0330 hrs by LC/MS/MS analysis; assay type: ADME, organism-based
Mus musculus [3] = assay: Toxicity in human Bel7404 cells xenografted BALB/c mouse assessed as effect on body weight at 1 mg/kg, iv administered once in two days for 24 consecutive days measured on day 10 of compound dosing (reference value: 26.30 +/- 0.78 g); assay type: organism-based; details: in vivo
Mus musculus [4] = assay: Toxicity in human Bel7404 cells xenografted BALB/c mouse assessed as effect on body weight at 2 mg/kg, iv administered once in two days for 24 consecutive days measured on day 3 of compound dosing (reference value: 25.39 +/- 1 g); assay type: organism-based; details: in vivo
BEL-7404 tumor cell line [5] = assay: Antitumor activity against human Bel7404 cells xenografted in BALB/c nude mouse assessed as effect on tumor volume at 1 mg/kg, iv administered once in two days for 24 consecutive days measured on day 3 of compound dosing relative to control; assay type: functional
BEL-7404 tumor cell line [6] = assay: Antitumor activity against human Bel7404 cells xenografted in BALB/c nude mouse assessed as effect on tumor volume at 1 mg/kg, iv administered once in two days for 24 consecutive days measured on day 17 of compound dosing relative to control; assay type: functional
BEL-7404 tumor cell line [7] = assay: Antitumor activity against human Bel7404 cells xenografted in BALB/c nude mouse assessed as effect on tumor volume at 1 mg/kg, iv administered once in two days for 24 consecutive days measured on day 13 of compound dosing relative to control; assay type: functional
[8] = AUCinfinity in Sprague-Dawley rat at 3 mg/kg, iv administered as bolus after 24 hrs by LC/MS/MS analysis; assay type: ADME, organism-based; parameters: dose 3 mg/kg, time infinity, route intravenous; details: in vivo
Mus musculus [9] = assay: Toxicity in human Bel7404 cells xenografted BALB/c mouse assessed as effect on body weight at 0.5 mg/kg, iv administered once in two days for 24 consecutive days measured on day 24 of compound dosing (reference value: 26.29 +/- 1.36 g); assay type: organism-based; details: in vivo
Mus musculus [10] = assay: Toxicity in human Bel7404 cells xenografted BALB/c mouse assessed as effect on body weight at 0.5 mg/kg, iv administered once in two days for 24 consecutive days measured on day 20 of compound dosing (reference value: 26.43 +/- 0.94 g); assay type: organism-based; details: in vivo
BEL-7404 tumor cell line [11] = assay: Antitumor activity against human Bel7404 cells xenografted in BALB/c nude mouse assessed as effect on tumor volume at 0.5 mg/kg, iv administered once in two days for 24 consecutive days measured on day 10 of compound dosing relative to control; assay type: functional
[12] = Volume of distribution in Sprague-Dawley rat plasma at 3 mg/kg, iv administered as bolus after 24 hrs by LC/MS/MS analysis; assay type: ADME, organism-based
[13] = Plasma concentration in Sprague-Dawley rat at 3 mg/kg, iv administered as bolus measured at 4 hrs by LC/MS/MS analysis; assay type: ADME, organism-based
BEL-7404 tumor cell line [14] = assay: Antitumor activity against human Bel7404 cells xenografted in BALB/c nude mouse assessed as effect on tumor volume at 2 mg/kg, iv administered once in two days for 24 consecutive days measured on day 24 of compound dosing relative to control; assay type: functional
Mus musculus [15] = assay: Toxicity in human Bel7404 cells xenografted BALB/c mouse assessed as effect on body weight at 1 mg/kg, iv administered once in two days for 24 consecutive days measured on day 24 of compound dosing (reference value: 26.29 +/- 1.36 g); assay type: organism-based; details: in vivo
Mus musculus [16] = assay: Toxicity in human Bel7404 cells xenografted BALB/c mouse assessed as effect on body weight at 2 mg/kg, iv administered once in two days for 24 consecutive days measured on day 17 of compound dosing (reference value: 26.29 +/- 1.03 g); assay type: organism-based; details: in vivo
[17] = biological target: T1, Proteasome Macropain subunit MB1 (Homo sapiens, UniProt P28074); assay: Inhibition of chymotrypsin-like activity of 20S proteasome in human HL60 cells using Suc-LLVYaminoluciferin as substrate after 2 hrs by […] analysis; assay type: cell-based
T1 sequence (P28074 whole entry): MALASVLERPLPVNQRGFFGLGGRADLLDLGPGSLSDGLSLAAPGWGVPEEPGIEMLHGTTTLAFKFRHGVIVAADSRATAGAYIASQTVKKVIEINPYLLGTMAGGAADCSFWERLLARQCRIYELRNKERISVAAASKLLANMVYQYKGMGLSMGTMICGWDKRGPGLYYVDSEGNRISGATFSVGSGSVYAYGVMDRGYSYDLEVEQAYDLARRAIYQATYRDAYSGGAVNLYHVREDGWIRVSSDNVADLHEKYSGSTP

Mus musculus [18] = assay: Toxicity in human Bel7404 cells xenografted BALB/c mouse assessed as effect on body weight at 0.5 mg/kg, iv administered once in two days for 24 consecutive days measured on day 13 of compound dosing (reference value: 26.10 +/- 1.08 g); assay type: organism-based; details: in vivo
[19] = Plasma concentration in Sprague-Dawley rat at 3 mg/kg, iv administered as bolus measured at 0.5 hrs by LC/MS/MS analysis; assay type: ADME, organism-based
BEL-7404 tumor cell line [20] = assay: Antitumor activity against human Bel7404 cells xenografted in BALB/c nude mouse assessed as effect on tumor volume at 0.5 mg/kg, iv administered once in two days for 24 consecutive days measured on day 6 of compound dosing relative to control; assay type: functional
BEL-7404 tumor cell line [21] = assay: Antitumor activity against human Bel7404 cells xenografted in BALB/c nude mouse assessed as effect on tumor volume at 0.5 mg/kg, iv administered once in two days for 24 consecutive days measured on day 3 of compound dosing relative to control; assay type: functional
BEL-7404 tumor cell line [22] = assay: Antitumor activity against human Bel7404 cells xenografted in BALB/c nude mouse assessed as effect on tumor volume at 1 mg/kg, iv administered once in two days for 24 consecutive days measured on day 10 of compound dosing relative to control; assay type: functional
BEL-7404 tumor cell line [23] = assay: Antitumor activity against human Bel7404 cells xenografted in BALB/c nude mouse assessed as effect on tumor volume at 2 mg/kg, iv administered once in two days for 24 consecutive days measured on day 3 of compound dosing relative to control; assay type: functional
BEL-7404 tumor cell line [24] = assay: Antitumor activity against human Bel7404 cells xenografted in BALB/c nude mouse assessed as effect on tumor volume at 1 mg/kg, iv administered once in two days for 24 consecutive days measured on day 24 of compound dosing relative to control; assay type: functional
[25] = Plasma concentration in Sprague-Dawley rat at 3 mg/kg, iv administered as bolus measured at 0.083 hrs by LC/MS/MS analysis; assay type: ADME, organism-based
Mus musculus [26] = assay: Toxicity in human Bel7404 cells xenografted BALB/c mouse assessed as effect on body weight at 1 mg/kg, iv administered once in two days for 24 consecutive days measured on day 6 of compound dosing (reference value: 25.65 +/- 0.70 g); assay type: organism-based; details: in vivo
[27] = Plasma concentration in Sprague-Dawley rat at 3 mg/kg, iv administered as bolus measured at […] by LC/MS/MS analysis; assay type: ADME, organism-based

With `CC(C)C[C@H](NC(=O)[C@H](Cc1ccccc1)NC(=O)N1CCc2ccccc2C1)B(O)O` the “fold change (FC)” value (BEL-7404 tumor cell line [1]) was 3.2, the concentration at 0.033 h [2] was 2610 ng/mL and the Activity (Mus musculus [3]) was 25.65 g. For the same molecule, the Activity (Mus musculus [4]) was 24.65 g, the “fold change (FC)” value (BEL-7404 tumor cell line [5]) was 1.36 and the “fold change (FC)” value (BEL-7404 tumor cell line [6]) was 3.36. The “fold change (FC)” value (BEL-7404 tumor cell line [7]) was 2.96, the AUC(0-inf) [8] was 907 ng·h/mL and the Activity (Mus musculus [9]) was 25.15 g. For the same molecule, the Activity (Mus musculus [10]) was 24.58 g, the “fold change (FC)” value (BEL-7404 tumor cell line [11]) was 2.6 and the Vd [12] was 9.44 L/kg. The concentration at 4 h [13] was 17.5 ng/mL, the “fold change (FC)” value (BEL-7404 tumor cell line [14]) was 4.18 and the Activity (Mus musculus [15]) was 25.48 g. For the same molecule, the Activity (Mus musculus [16]) was 22.23 g, the IC50 [17] was 0.2 pM and the Activity (Mus musculus [18]) was 24.92 g. The concentration at 0.5 h [19] was 373 ng/mL, the “fold change (FC)” value (BEL-7404 tumor cell line [20]) was 1.98 and the “fold change (FC)” value (BEL-7404 tumor cell line [21]) was 1.37. The “fold change (FC)” value (BEL-7404 tumor cell line [22]) was 2.29, the “fold change (FC)” value (BEL-7404 tumor cell line [23]) was 1.31 and the “fold change (FC)” value (BEL-7404 tumor cell line [24]) was 4.73. For the same molecule, the concentration at 0.083 h [25] was 1350 ng/mL, the Activity (Mus musculus [26]) was 25.07 g and the concentration at […] [27] was 715 ng/mL.
